{"source": "patent US10798939B2", "about": "“Cellulose binding domain chitosan seed coating” (priority 2015, dated 2020)", "system": "V. radiata", "settings": "AgNO3 0-2 mM bolus doses, day 4 to day 8", "experimental": "For two days beans were allowed to germinate in the dark at 20° C. as described above. On day 3, the plate was incubated at 20° C./12 hr photoperiod and 100% humidity, and 500 μL of distilled water were added to each well. On day 5 another 750 μL of distilled water were added and the cover of the well plate was removed. The EC50 was determined as the concentration at which the change in mass of the seedling was half that of untreated V. radiata.", "data": [{"smiles": "O=[N+]([O-])[O-].[Ag+]", "note": "[AgNO3, silver nitrate]", "values": [{"measurement": "change in mass of V. radiata", "result": "decreased significantly in a dose response fashion"}]}]}
